Data reported in ChEMBL document CHEMBL1201862, “PubChem BioAssay data set” (2004).
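Following 48 hours of exposure in 96-well plates, responses at five concentrations were used to interpolate endpoints linearly. Here, GI50 denotes the concentration required for 50% inhibition of growth.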 Active and inactive are the calls of the source. Cut-off read from the data, not from the text of the source: active = GI50 up to about 1.1 µM and inactive = higher.

Tests used:
Assay in all cases: DTP human tumour cell line panel, 48 h
[1] = tested on: KM12
[2] = tested on: PC-3
[3] = tested on: MDA-MB-435
[4] = tested on: BT-549
[5] = tested on: RXF 393
[6] = tested on: MOLT-4
[7] = tested on: SF-539
[8] = tested on: OVCAR-5
[9] = tested on: SR
[10] = tested on: SK-OV-3
[11] = tested on: SK-MEL-2
[12] = tested on: SK-MEL-5
[13] = tested on: OVCAR-4
[14] = tested on: Hs-578T
[15] = tested on: EKVX
[16] = tested on: HCT-116
[17] = tested on: SNB-19
[18] = tested on: HOP-92
[19] = tested on: NCI/ADR-RES
[20] = tested on: UACC-257
[21] = tested on: OVCAR-3
[22] = tested on: LOX IMVI
[23] = tested on: ACHN
[24] = tested on: NCI-H460
[25] = tested on: UACC-62
[26] = tested on: IGROV-1
[27] = tested on: Malme-3M
[28] = tested on: MCF7
[29] = tested on: MDA-MB-231
[30] = tested on: OVCAR-8
[31] = tested on: CCRF-CEM
[32] = tested on: COLO 205
[33] = tested on: A498
[34] = tested on: SF-295
[35] = tested on: M14
[36] = tested on: A549
[37] = tested on: HL-60
[38] = tested on: 786-0
[39] = tested on: SN12C
[40] = tested on: NCI-H522
[41] = tested on: HCT-15
[42] = tested on: NCI-H23
[43] = tested on: K562
[44] = tested on: SW-620
[45] = tested on: UO-31
[46] = tested on: U-251
[47] = tested on: CAKI-1
[48] = tested on: DU-145
[49] = tested on: RPMI-8226
[50] = tested on: TK-10
[51] = tested on: HCC 2998
[52] = tested on: SNB-75
[53] = tested on: MDA-N
[54] = tested on: HT-29
[55] = tested on: HOP-62
[56] = tested on: SK-MEL-28
[57] = tested on: SF-268
[58] = tested on: NCI-H226
[59] = tested on: T47D

Measured: GI50

Cc1cn2c(C)csc2c1P(=O)(OC(C)C)OC(C)C
inactive: [1] > 100 µM | [2] > 100 µM | [3] > 100 µM | [4] > 100 µM | [5] > 100 µM | [6] > 100 µM | [7] > 100 µM | [8] > 100 µM | [9] > 100 µM | [10] > 100 µM | [11] > 100 µM | [12] > 100 µM | [13] > 100 µM | [14] > 100 µM | [15] > 100 µM | [16] > 100 µM | [17] > 100 µM | [18] > 100 µM | [19] > 100 µM | [20] > 100 µM | [21] > 100 µM | [22] > 100 µM | [23] > 100 µM | [24] > 100 µM | [25] > 100 µM | [26] > 100 µM | [27] > 100 µM | [28] > 100 µM | [29] 31.3 µM | [30] > 100 µM | [31] > 100 µM | [32] > 100 µM | [33] > 100 µM | [34] > 100 µM | [35] > 100 µM | [36] > 100 µM | [37] > 100 µM | [38] > 100 µM | [39] > 100 µM | [40] > 100 µM | [42] > 100 µM | [43] > 100 µM | [44] > 100 µM | [45] > 100 µM | [46] > 100 µM | [47] > 100 µM | [48] > 100 µM | [49] > 100 µM | [50] > 100 µM | [51] > 100 µM | [52] > 100 µM | [53] > 100 µM | [54] > 100 µM | [55] > 100 µM | [56] > 100 µM | [57] > 100 µM
> 100 µM: [41]

Cc1ccc(C2(N3CCOCC3)OC(C)(C)c3cccc4cccc2c34)cc1 (stereo not drawn)
inactive: [1] 21.1 µM | [2] 16.5 µM | [3] 16.9 µM | [4] 17.3 µM | [5] 15.3 µM | [6] 41.5 µM | [7] 17.9 µM | [8] 15.8 µM | [9] 35.1 µM | [10] 16.7 µM | [11] 15.6 µM | [12] 18.6 µM | [13] 15.9 µM | [14] 20.9 µM | [15] 13 µM | [16] 17.1 µM | [17] 17.6 µM | [18] 11.9 µM | [19] 15.7 µM | [20] 18 µM | [21] 16 µM | [22] 16.5 µM | [23] 16.3 µM | [24] 14.5 µM | [25] 13.6 µM | [26] 17.9 µM | [27] 16.8 µM | [28] 16 µM | [30] 16.9 µM | [31] 22.6 µM | [32] 15.9 µM | [33] 17.7 µM | [34] 16.9 µM | [35] 16.8 µM | [36] 12.9 µM | [37] 34.9 µM | [38] 17.3 µM | [39] 16.9 µM | [40] 15.8 µM | [42] 17.7 µM | [43] 30.2 µM | [44] 18.2 µM | [45] 16.9 µM | [46] 16.5 µM | [47] 18.2 µM | [48] 18 µM | [58] 17.1 µM | [49] 16.2 µM | [50] 17.3 µM | [52] 15.4 µM | [53] 17.9 µM | [54] 15.5 µM | [55] 15.7 µM | [59] 21.7 µM | [57] 14.4 µM
17 µM: [41]

O=c1[nH]nc(-c2ccc3ccccc3c2)[nH]1
inactive: [1] 36.2 µM | [2] > 100 µM | [3] > 100 µM | [4] > 100 µM | [5] > 100 µM | [6] > 100 µM | [7] > 100 µM | [8] > 100 µM | [9] 45.1 µM | [11] > 100 µM | [13] > 100 µM | [14] 2.81 µM | [16] > 100 µM | [17] > 100 µM | [19] > 100 µM | [20] > 100 µM | [21] > 100 µM | [22] > 100 µM | [23] > 100 µM | [24] > 100 µM | [25] 21 µM | [26] 70.3 µM | [27] > 100 µM | [28] > 100 µM | [30] > 100 µM | [31] > 100 µM | [32] > 100 µM | [33] 80 µM | [34] 45.5 µM | [35] > 100 µM | [36] > 100 µM | [37] > 100 µM | [38] > 100 µM | [39] > 100 µM | [40] > 100 µM | [42] > 100 µM | [43] > 100 µM | [44] > 100 µM | [45] 43.3 µM | [46] > 100 µM | [47] > 100 µM | [48] > 100 µM | [58] > 100 µM | [49] > 100 µM | [50] > 100 µM | [51] > 100 µM | [52] 22.9 µM | [53] > 100 µM | [54] > 100 µM | [55] > 100 µM | [59] > 100 µM | [56] > 100 µM | [57] > 100 µM
> 100 µM: [41]
active: [15] 0.282 µM

CCCSc1ccc2[nH]c(N3C(=O)/C(=C/c4ccccc4)N=C3c3ccccc3)cc2c1
19.2 µM: [41]
inactive: [1] 15.1 µM | [2] 23.7 µM | [3] 8.3 µM | [4] 19.9 µM | [5] 20 µM | [6] 16.3 µM | [7] 18.1 µM | [8] > 50 µM | [9] 10.5 µM | [12] 14.2 µM | [13] 30 µM | [14] 20.3 µM | [15] 19.1 µM | [16] 22.4 µM | [17] 41.4 µM | [18] > 50 µM | [19] 16.9 µM | [20] 17 µM | [22] 20.4 µM | [23] 39.2 µM | [25] 21.5 µM | [26] 31.9 µM | [27] 24.2 µM | [28] 24.4 µM | [30] 19.5 µM | [31] 18.4 µM | [32] 10.5 µM | [33] 27 µM | [35] 16.6 µM | [36] 19.5 µM | [37] 12.1 µM | [38] 23.3 µM | [39] 30.9 µM | [40] 12.1 µM | [42] 23.5 µM | [43] 14.2 µM | [44] 18.7 µM | [45] 42.9 µM | [47] 27.2 µM | [48] 35.6 µM | [49] 12.4 µM | [51] 15.1 µM | [52] 40.6 µM | [53] 10.2 µM | [54] 16.7 µM | [59] 22.8 µM | [56] 32.4 µM | [57] 18.4 µM
active: [11] 0.391 µM

CCOP(=O)(O)C1C(CO)OC(n2ccc(=O)[nH]c2=O)C1O (stereo not drawn)
inactive: [1] > 100 µM | [2] > 100 µM | [4] > 100 µM | [5] > 100 µM | [6] > 100 µM | [7] > 100 µM | [9] > 100 µM | [11] > 100 µM | [12] > 100 µM | [13] > 100 µM | [14] > 100 µM | [15] > 100 µM | [16] > 100 µM | [17] > 100 µM | [18] > 100 µM | [20] > 100 µM | [21] > 100 µM | [22] > 100 µM | [23] > 100 µM | [24] > 100 µM | [25] > 100 µM | [26] > 100 µM | [27] > 100 µM | [29] > 100 µM | [30] > 100 µM | [31] > 100 µM | [33] > 100 µM | [34] > 100 µM | [35] > 100 µM | [36] > 100 µM | [37] > 100 µM | [38] > 100 µM | [39] > 100 µM | [40] > 100 µM | [43] > 100 µM | [44] > 100 µM | [45] > 100 µM | [47] > 100 µM | [58] > 100 µM | [49] > 100 µM | [50] > 100 µM | [51] > 100 µM | [52] > 100 µM | [53] > 100 µM | [54] > 100 µM | [55] > 100 µM | [59] > 100 µM | [56] > 100 µM | [57] > 100 µM
> 100 µM: [41]
